Data taken from ChEMBL document CHEMBL1933054, “Structure-based design of PDK1 inhibitors” (Bioorg Med Chem Lett, 2012).

Tests used:
[1] = biological target: T1, 3-phosphoinositide-dependent protein kinase 1 (Homo sapiens, UniProt O15530); assay: Inhibition of PDK1 using [gamma33P]-ATP as substrate after 30 mins by scintillation counting
T1 sequence (O15530 whole entry): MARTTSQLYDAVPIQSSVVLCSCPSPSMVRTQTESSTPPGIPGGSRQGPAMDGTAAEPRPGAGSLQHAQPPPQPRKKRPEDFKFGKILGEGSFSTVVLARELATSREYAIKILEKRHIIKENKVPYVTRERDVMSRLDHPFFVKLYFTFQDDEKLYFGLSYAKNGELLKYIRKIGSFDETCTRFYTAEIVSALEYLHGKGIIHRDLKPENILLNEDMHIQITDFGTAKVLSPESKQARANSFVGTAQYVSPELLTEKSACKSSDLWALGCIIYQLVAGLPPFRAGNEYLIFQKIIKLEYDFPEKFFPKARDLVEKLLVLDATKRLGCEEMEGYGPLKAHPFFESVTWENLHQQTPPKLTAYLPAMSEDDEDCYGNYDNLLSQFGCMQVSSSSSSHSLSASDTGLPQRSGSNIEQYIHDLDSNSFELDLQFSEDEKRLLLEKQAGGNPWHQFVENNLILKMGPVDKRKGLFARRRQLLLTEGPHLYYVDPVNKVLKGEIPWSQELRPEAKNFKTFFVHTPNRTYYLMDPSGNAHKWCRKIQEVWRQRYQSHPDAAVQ

[2] = biological target: Cyclin-dependent kinase 2 (Homo sapiens, UniProt P24941); assay: Inhibition of CDK2
[3] = biological target: T2, Receptor-type tyrosine-protein kinase FLT3 (Homo sapiens, UniProt P36888); assay: Inhibition of Flt3
T2 sequence (P36888 whole entry): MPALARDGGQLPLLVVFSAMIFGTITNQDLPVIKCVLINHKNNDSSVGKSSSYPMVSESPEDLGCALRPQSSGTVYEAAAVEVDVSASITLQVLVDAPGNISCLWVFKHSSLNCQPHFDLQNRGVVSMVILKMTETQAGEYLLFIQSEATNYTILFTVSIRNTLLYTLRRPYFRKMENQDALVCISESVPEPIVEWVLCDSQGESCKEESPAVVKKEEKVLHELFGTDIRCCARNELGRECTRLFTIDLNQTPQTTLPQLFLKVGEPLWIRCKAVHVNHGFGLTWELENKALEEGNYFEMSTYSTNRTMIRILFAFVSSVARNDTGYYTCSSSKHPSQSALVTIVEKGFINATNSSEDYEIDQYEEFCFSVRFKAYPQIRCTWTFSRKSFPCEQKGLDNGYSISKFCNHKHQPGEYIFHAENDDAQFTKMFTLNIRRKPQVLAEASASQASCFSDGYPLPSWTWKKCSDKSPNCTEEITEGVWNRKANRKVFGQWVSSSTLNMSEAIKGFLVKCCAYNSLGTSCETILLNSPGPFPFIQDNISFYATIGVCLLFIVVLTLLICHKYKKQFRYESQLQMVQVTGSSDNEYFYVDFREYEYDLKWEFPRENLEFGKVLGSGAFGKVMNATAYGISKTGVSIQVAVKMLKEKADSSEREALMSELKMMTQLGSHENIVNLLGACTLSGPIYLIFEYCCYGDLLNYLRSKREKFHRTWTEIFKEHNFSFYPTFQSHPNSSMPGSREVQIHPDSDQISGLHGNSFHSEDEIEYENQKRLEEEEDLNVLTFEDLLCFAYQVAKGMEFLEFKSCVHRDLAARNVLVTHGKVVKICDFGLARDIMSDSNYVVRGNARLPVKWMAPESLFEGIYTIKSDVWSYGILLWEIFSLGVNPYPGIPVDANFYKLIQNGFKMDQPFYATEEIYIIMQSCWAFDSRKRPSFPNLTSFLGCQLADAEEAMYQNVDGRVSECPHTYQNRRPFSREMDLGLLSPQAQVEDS

[4] = Half life in human liver microsomes; assay type: ADME, Microsome
[5] = Oral bioavailability in mouse; assay type: ADME, organism-based; conditions: in vivo
[6] = biological target: Tyrosine-protein kinase JAK2 (Homo sapiens, UniProt O60674); assay: Inhibition of JAK2
Sequence of Tyrosine-protein kinase JAK2 (O60674 whole entry): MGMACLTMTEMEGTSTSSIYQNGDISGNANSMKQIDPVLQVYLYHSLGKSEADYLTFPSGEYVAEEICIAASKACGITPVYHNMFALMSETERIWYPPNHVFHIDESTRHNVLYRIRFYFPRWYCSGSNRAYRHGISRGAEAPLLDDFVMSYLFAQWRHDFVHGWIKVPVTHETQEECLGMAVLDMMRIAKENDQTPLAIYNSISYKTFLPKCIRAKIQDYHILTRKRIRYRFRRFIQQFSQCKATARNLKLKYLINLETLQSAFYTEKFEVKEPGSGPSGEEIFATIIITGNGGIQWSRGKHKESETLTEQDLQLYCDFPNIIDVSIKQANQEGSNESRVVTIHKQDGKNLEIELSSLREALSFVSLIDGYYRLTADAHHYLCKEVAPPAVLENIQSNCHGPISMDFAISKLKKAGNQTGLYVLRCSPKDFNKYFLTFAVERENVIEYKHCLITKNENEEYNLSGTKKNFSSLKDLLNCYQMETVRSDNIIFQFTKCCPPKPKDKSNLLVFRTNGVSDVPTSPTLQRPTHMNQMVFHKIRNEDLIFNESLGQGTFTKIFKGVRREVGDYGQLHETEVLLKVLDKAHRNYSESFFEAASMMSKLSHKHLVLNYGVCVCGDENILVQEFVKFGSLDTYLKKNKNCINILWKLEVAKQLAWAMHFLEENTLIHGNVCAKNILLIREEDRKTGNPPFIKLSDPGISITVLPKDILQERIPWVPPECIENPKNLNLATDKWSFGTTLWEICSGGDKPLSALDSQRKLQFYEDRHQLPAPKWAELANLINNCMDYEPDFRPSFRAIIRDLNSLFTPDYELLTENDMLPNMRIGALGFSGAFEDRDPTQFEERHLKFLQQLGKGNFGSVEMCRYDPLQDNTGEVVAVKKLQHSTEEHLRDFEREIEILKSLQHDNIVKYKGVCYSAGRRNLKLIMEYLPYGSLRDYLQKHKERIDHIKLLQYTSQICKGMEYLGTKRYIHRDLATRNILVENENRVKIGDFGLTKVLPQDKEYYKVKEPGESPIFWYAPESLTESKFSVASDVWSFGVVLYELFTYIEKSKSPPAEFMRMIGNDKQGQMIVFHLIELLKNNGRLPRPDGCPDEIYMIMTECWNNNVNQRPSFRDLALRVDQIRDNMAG

IC50 [1]	IC50 [2]	IC50 [3]	half-life [4]	bioavailability [5]	IC50 [6]	Compound
390 nM	4100 nM	58 nM				CN1C/C=C/CCOc2cccc(c2)-c2nc(nc3[nH]cnc23)Nc2cccc(c2)C1
			> 1 h	65%		COc1ccc(-c2nc(Nc3cccc(NC(=O)N4CCCC4)c3)nc3nc[nH]c23)cc1
98 nM	> 10000 nM	350 nM			330 nM	COc1ccc(-c2nc(Nc3cccc(NC(=O)CN)c3)nc3[nH]cnc23)cc1OC
	1500 nM					CC(C)(C(N)=O)C(=O)NCCCNc1nc(Nc2cccc(NC(=O)N3CCCC3)c2)ncc1Br
1400 nM	150 nM	22 nM			180 nM	Cc1cnc2nc1-c1cccc(c1)OCC/C=C/CN(C)Cc1cccc(c1)N2
1600 nM	7000 nM	7300 nM			830 nM	Oc1ccc(-c2nc(Nc3cccc(Cl)c3)nc3[nH]cnc23)cc1
